# Reference: patent US6013621A, “Method of treating psychosis and/or hyperactivity” (The Rockfeller University, priority 1997, dated 2000)
# Where “and” joins values, the source holds several entries; their conditions need not be identical. Identical values can stand only once. Like-named read-outs stand apart in the source and are kept apart here.
# Experiments:
# DARPP-32 phosphorylation = DARPP-32 phosphorylation in rat neostriatal slices (FIG. 9); format: cell-based; settings: forskolin 10 μM plus FK506 at various concentrations
# Description: FIG. 9. FK506 increases the level of DARPP-32 phosphorylation in neostriatal slices. Rat neostriatal slices were incubated in the absence (control) or presence of forskolin (10 μM) alone; or forskolin and FK506 using the various concentrations shown.
# [1] = prepulse inhibition (PPI) of the startle reflex in mice; format: in vivo
# Text: Chambers that are used to assess startle are housed in a sound-attenuated room with a 60 dB(A) ambient noise level. Such chambers consist of a Plexiglass cylinder 8.2 cm in diameter resting on a 12.5×25.5 cm Plexiglass frame within a ventilated enclosure. Acoustic noise bursts are presented via a speaker mounted 24 cm above the animal. A piezoelectric accelerometer mounted below the Plexiglass frame detects and transduces motion within the cylinder. The delivery of acoustic stimuli is controlled by a microcomputer. Startle amplitude is defined as the average of 100 readings. Background noise and all acoustic stimuli are delivered through a speaker (frequency response between 0.5 and 16 Khz) in a chamber. The test session consists of giving: (i) a startle stimulus alone (a 118 dB [A] 40 ms broad band burst); or (ii) no stimulation; or (iii) a startle stimulus preceded 100 ms earlier by a prepulse (a 70 dB [A] 20 ms broad band burst). The amount of PPI is expressed as the percentage decrease in the startle response caused by the presentation of the prepulse. The amount of PPI is calculated using the following equation: [(startle amplitude caused by pulse alone minus startle amplitude caused by pulse preceded by prepulse)/(startle amplitude caused by pulse alone)]×100.
# [2] = Begley et al., 1990; cited from earlier work
# [3] = test system: thr^34 -phosphorylated DARPP-32; assay: phospho-DARPP-32 immunoblot in mouse neostriatal slices; format: cell-based; settings: for increase in the level of phosphorylated DARPP-32 over the already high basal levels: Ca^2+ -free/EGTA medium; for increase in the level of phosphorylated DARPP-32: vs untreated slices
# Description: (§1) Preparation and incubation of striatal slices. Male C57BL/6 mice (5-8 weeks old) were sacrificed by decapitation. The brains of the decapitated mice were rapidly removed and placed in ice-cold, oxygenated Krebs-HCO3 -buffer (124 mM NaCl, 4 mM KCl, 26 mM NaHCO3, 1.5 mM CaCl2, 1.25 mM KH2 PO4, 1.5 mM MgSO4 and 10 mM D-glucose, pH 7.4). Coronal slices (350 μm) were prepared using a vibratome. Striatum and nucleus accumbens were dissected from the slices in ice-cold Krebs-HCO3 - buffer. Each slice was placed in a polypropylene incubation tube with 2 ml of fresh Krebs-HCO3 - buffer containing adenosine deaminase (10 μg/ml). The slices were preincubated at 30° C. under constant oxygenation with 95 % O2 /5 % CO2 for 60 minutes. The buffer was replaced with fresh Krebs-HCO3 -buffer after 30 minutes of preincubation. In some experiments, slices were incubated in Ca^2+ -free/EGTA medium (124 mM NaCl, 4 mM KCl, 26 mM NaHCO3, 1.25 mM KH2 PO4, 3.0 mM MgSO4, 10 mM D-glucose and I mM EGTA, pH 7.4) for 20 minutes after 60 minutes of preincubation in Krebs-HCO3 - buffer. Slices were treated with drugs as specified in each experiment.
# (§2) Immunoblotting. Frozen tissue samples were sonicated in boiling 1% SDS and boiled for an additional 10 minutes. Small aliquots of the homogenate were retained for protein determination by the BCA protein assay method (Pierce) using bovine serum albumin as a standard. […] The membranes were immunoblotted using a monoclonal antibody (mAb-23; 1:750 dilution) [Snyder et al., (1992)], which is a phosphorylation state-specific antibody raised against a DARPP-32 peptide containing phospho-thr^34, the site phosphorylated by cAMP-dependent protein kinase. A monoclonal antibody (C24-5a; 1:7500 dilution) generated against DARPP-32 (Hemmings and Greengard, 1986), which is not phosphorylation state-specific, was used to estimate the total amount of DARPP-32 in samples.
# (§3) Data were analyzed by Student's t -test with significance defined as p<0.05.
# [4] = treatment with a D1 antagonist, Karlsson et al., 1995; cited from earlier work
# [5] = test system: thr^34 -phosphorylated DARPP-32; assay: phospho-DARPP-32 immunoblot in nucleus accumbens slices; format: cell-based, mouse
# Description: as §1, §2, §3
smiles,measurement,setting,value
C=CC[C@@H]1/C=C(\C)C[C@H](C)C[C@H](OC)[C@H]2O[C@@](O)(C(=O)C(=O)N3CCCC[C@H]3C(=O)O[C@H](/C(C)=C/[C@@H]3CC[C@@H](O)[C@H](OC)C3)[C@H](C)[C@@H](O)CC1=O)[C@H](C)C[C@@H]2OC [FK506],effect on the level of DARPP-32 phosphorylation,DARPP-32 phosphorylation,increases DARPP-32 phosphorylation in a dose-dependent manner
same,effect on the reduction of PPI mediated by quinpirole,"[1]; D2 agonist and FK506 concurrently, FK506 intravenously 1 to 1000 nM",blocks the reduction of PPI mediated by quinpirole
same,"effect on the degree of PPI, FK506 alone",[1]; FK506 alone,can increase the degree of PPI
same,crossing of the blood-brain barrier,[2],effectively crosses the blood-brain barrier
C[C@]12N[C@H](Cc3ccccc31)c1ccccc12 [MK801],effect on the D2 receptor (quinpirole) decrease of DARPP-32 phosphorylation,[3],not blocked
same,effect on the basal level of phosphorylated DARPP-32,[3],increased
same,"level of phospho-DARPP-32, MK801 (+)",[3],0.247 ± 0.044
same,effect on the NMDA antagonism of the SKF82526-induced increase of phosphorylated DARPP-32,"[3]; MK801 100 μM, NMDA 100 μM",abolished
CN[C@H](CC(=O)O)C(=O)O [NMDA],effect on the SKF82526-stimulated level of phosphorylated DARPP-32,[3],antagonized
same,decrease in SKF 82526-induced phosphorylation of DARPP-32,[3]; discussion of Table 2 data,100%
CN1CCc2cc(Cl)c(O)cc2[C@@H](c2ccccc2)C1 [SCH23390],effect on the SKF82526-induced DARPP-32 phosphorylation (D1 antagonist),[3],abolished
CN1CCc2cc(Cl)c(O)cc2[C@H]2c3ccccc3CC[C@@H]21 [SCH39166],effect on the symptoms of schizophrenia,[4],does not improve but actually worsens the symptoms of schizophrenia
Oc1ccc(C2CNCCc3c2cc(O)c(O)c3Cl)cc1 (centres unmarked) [SKF82526],"level of phospho-DARPP-32, TTX (+)",[3],5.492 ± 0.780
same,"level of phospho-DARPP-32, TTX (-)",[3],3.282 ± 0.575
same,increase in the level of phosphorylated DARPP-32 over the already high basal levels,[3],1.55±0.12 fold
same,EC50,"[3]; Mus musculus, dose-dependent increase, read-out: half-maximal effect on DARPP-32 phosphorylation",~100 nM
same,increase in the level of phosphorylated DARPP-32,[3]; SKF82526 1 μM alone,5.37±0.99 fold and 9.36±2.06 fold
same,"level of phospho-DARPP-32, Cyclosporin A (-), 5 min","[3]; Table 1A, SKF82526 1 μM for 5 min, normalized to control",7.14 ± 0.97
same,"level of phospho-DARPP-32, Cyclosporin A (-), 30 min","[3]; Table 1A, SKF82526 1 μM for 30 min, normalized to control",3.07 ± 0.66
same,"level of phospho-DARPP-32, Cyclosporin A (+), 5 min","[3]; Table 1A, cyclosporin A 5 μM preincubation 60 min, SKF82526 1 μM for 5 min, normalized to control",31.6 ± 2.8
same,"level of phospho-DARPP-32, Cyclosporin A (+), 30 min","[3]; Table 1A, cyclosporin A 5 μM preincubation 60 min, SKF82526 1 μM for 30 min, normalized to control",28.0 ± 3.1
same,"level of phospho-DARPP-32, Cyclosporin A (+)","[3]; Table 1C, cyclosporin A 5 μM 60 min, quinpirole 1 μM 5 min preincubation, SKF82526 1 μM 5 min, normalized to control",21.1 ± 2.3
same,"level of phospho-DARPP-32, Cyclosporin A (-)","[3]; Table 1C, quinpirole 1 μM 5 min preincubation, SKF82526 1 μM 5 min, normalized to control",10.61 ± 2.28
same,"level of phospho-DARPP-32, MK801 (+)","[3]; Table 2, MK801 100 μM from 0 min, NMDA 100 μM or quinpirole 1 μM at 10 min, SKF82526 1 μM at 15 min of 20 min, normalized to SKF82526 alone",1.115 ± 0.078
same,"level of phospho-DARPP-32, MK801 (-)","[3]; Table 2, NMDA 100 μM or quinpirole 1 μM at 10 min, SKF82526 1 μM at 15 min of 20 min, normalized to SKF82526 alone",1.000
same,increase in the level of phosphorylated DARPP-32,[5]; SKF82526 1 μM,about 7 fold
"NC1=N[C@H](O)[C@H]2[C@H]3O[C@]4(O)O[C@@H]([C@@H](O)[C@@]2(N1)[C@@H]4O)[C@]3(O)CO [TTX, tetrodotoxin]",effect on the SKF82526-stimulated level of phosphorylated DARPP-32,[3],increased
same,effect on the basal level of phosphorylated DARPP-32,[3],increased
same,effect on the effect of quinpirole on DARPP-32 phosphorylation,[3],failed to reduce
same,"level of phospho-DARPP-32, TTX (+)",[3],1.000
NCCc1ccc(O)c(O)c1 [dopamine],increase in the level of phosphorylated DARPP-32,[3]; dopamine 100 μM plus nomifensine 10 μM,6.64±1.36 fold
C=C[C@@]1(C)CC(=O)[C@]2(O)[C@@]3(C)[C@@H](O)CCC(C)(C)[C@@H]3[C@H](O)[C@H](OC(C)=O)[C@@]2(C)O1 [forskolin],increase in the level of phosphorylated DARPP-32 over the already high basal levels,[3],2.04±0.22 fold
same,increase in the level of phosphorylated DARPP-32 after 5 minutes,"[3]; forskolin 10 μM, 8-bromo-cAMP 1 mM",20 fold
CCCN1CCC[C@@H]2Cc3n[nH]cc3C[C@H]21 [quinpirole],effect on the basal level of phosphorylated DARPP-32,[3],decreased
CCN1CCC[C@H]1CNC(=O)c1c(O)c(Cl)cc(Cl)c1OC [raclopride],effect on the basal level of phosphorylated DARPP-32,[3],slightly increased
same,effect on the ability of quinpirole to decrease the SKF82526-stimulated level of phosphorylated DARPP-32,[3]; raclopride 1 μM,dramatically reduced
same,effect on the ability of quinpirole to decrease the basal level of phosphorylated DARPP-32,"[3]; raclopride 1 μM, quinpirole (100 μM)",blocked
same,effect on the quinpirole-induced decrease in SKF82526-stimulated DARPP-32 phosphorylation,[5]; raclopride 1 μM,abolished
same,effect on the quinpirole-induced decrease in basal DARPP-32 phosphorylation,[5]; raclopride 1 μM,abolished
same,effect on the basal level of phosphorylated DARPP-32,[5]; raclopride alone 1 μM,small increase
C/C=C(/C)C(=O)O[C@H]1C(C)=C2[C@H]([C@@H]1OC(=O)CCCCCCC)[C@@](C)(OC(C)=O)C[C@H](OC(=O)CCC)[C@@]1(O)[C@H]2OC(=O)[C@@]1(C)O [thapsigargin],reduction of the level of phosphorylated DARPP-32 seen with SKF82526,[3]; thapsigargin 5 μM added 5 min before SKF82526 1 μM for 5 minutes,46.9±7.7%
